According to US20110312974A1, “HETEROARYL ANTAGONISTS OF PROSTAGLANDIN D2 RECEPTORS” (AMIRA PHARMACEUTICALS, INC., priority 2008, published 2011):
pIC50: −log10 of the molar value.

Molecular target: T1, human DP2 receptor (Homo sapiens, UniProt Q9Y5Y4)
T1 construct: expressed in transfected cells; membrane preparation
T1 sequence (Q9Y5Y4 1-395): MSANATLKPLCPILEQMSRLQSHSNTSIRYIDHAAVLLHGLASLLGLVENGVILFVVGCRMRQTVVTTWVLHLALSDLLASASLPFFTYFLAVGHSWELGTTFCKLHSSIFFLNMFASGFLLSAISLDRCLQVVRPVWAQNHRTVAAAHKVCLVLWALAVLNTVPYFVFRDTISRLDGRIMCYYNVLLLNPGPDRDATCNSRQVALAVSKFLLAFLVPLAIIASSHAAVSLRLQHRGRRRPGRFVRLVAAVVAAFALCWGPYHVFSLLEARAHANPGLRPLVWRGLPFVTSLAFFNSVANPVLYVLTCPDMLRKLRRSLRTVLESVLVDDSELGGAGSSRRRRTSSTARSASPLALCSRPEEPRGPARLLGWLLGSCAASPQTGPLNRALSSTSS
Assay: DP2/CRTH2 radioligand binding assay using [3H]PGD2
Conditions: hDP2 (CRTH2) binding assay; membranes of HEK293 cells expressing recombinant human DP2, 1 nM [3H]PGD2
Method: The ability of a compound to bind to the human DP2 receptor is assessed via a radioligand binding assay using [^3H]PGD2. HEK293 cells stably expressing recombinant human DP2 are resuspended in 10 mM Hepes, 7.4 containing 1 mM DTT, lysed and centrifuged at 75,000×g to pellet the membranes. The membranes are resuspended in 10 mM Hepes, 7.4 containing 1 mM DTT and 10% glycerol to approximately 5 mg protein/ml. Membranes (2-10 μg protein/well) are incubated in 96-well plates with 1 nM [^3H]PGD2 and test compound in Assay Buffer (50 mM Hepes, 10 mM MnCl2, 1 mM EDTA, plus or minus 0.2% human serum albumin, pH 7.4) for 60 minutes at room temperature. The reactions are terminated by rapid filtration through Whatman GF/C glass fibre filter plates. The filter plates were pre-soaked in 0.33% polythylenimine for 30 minutes at room temperature then washed in Wash Buffer (50 mM Hepes, 0.5 M NaCl pH 7.4) prior to harvesting. After harvesting, the filter plates are washed 3 times with 1 ml cold Wash Buffer then dried. Scintillant is then added to the plates and the radioactivity retained on the filters is determined on a Packard TopCount (Perkin Elmer). Specific binding is determined as total radioactive binding minus non-specific binding in the presence of 10 μM PGD2. IC50s were determined using GraphPad prism analysis of drug titration curves.

## O=C(O)Cc1cncc(-c2ccc(C(=O)N3CCCC3)cc2CN(Cc2ccccc2)C(=O)C2CC2)c1 [Compound 1-8, {5-[2-[(N-Benzyl-N-cyclopropanecarbonyl-amino)-methyl]-4-(pyrrolidine-1-carbonyl)-phenyl]-pyridin-3-yl}-acetic acid]
  pIC50: 6.00 to 6.52

## CC(=O)NCc1ccc(-c2cncc(CC(=O)O)c2)c(CN(Cc2ccccc2)C(=O)C2CC2)c1 [Compound 1-9, (5-{4-(Acetylamino-methyl)-2-[(N-benzyl-N-cyclopropanecarbonyl-amino)-methyl]-phenyl}-pyridin-3-yl)-acetic acid]
  pIC50: < 6.00

## CS(=O)(=O)NCc1ccc(-c2cncc(CC(=O)O)c2)c(CN(Cc2ccccc2)C(=O)C2CC2)c1 [Compound 1-10, {5-[2-[(N-Benzyl-N-cyclopropanecarbonyl-amino)-methyl]-4-(methanesulfonylamino-methyl)-phenyl]-pyridin-3-yl}-acetic acid]
  pIC50: < 6.00

## CCN(Cc1cc(F)ccc1-c1cncc(C(C)C(=O)O)c1)C(=O)OCc1ccccc1 (stereo not shown) [Compound 1-11, 2-(5-{2-[(N-Benzyloxycarbonyl-N-ethyl-amino)-methyl]-4fluoro-phenyl}-pyridin-3-yl)-propionic acid]
  pIC50: > 6.52

## CCN(Cc1cc(F)ccc1-c1cncc(C(C)C(=O)O)c1)C(=O)NCc1ccccc1 (stereo not shown) [Compound 1-12, 2-{5-[2-(3-Benzyl-1-ethyl-ureidomethyl)-4fluoro-phenyl]-pyridin-3-yl}-propionic acid]
  pIC50: 6.00 to 6.52

## CCN(Cc1cc(F)ccc1-c1cncc(C(C)C(=O)O)c1)C(=O)C1CC1 (stereo not shown) [Compound 1-13, 2-(5-[2-[(N-Cyclopropanecarbonyl-N-ethyl-amino)-methyl]-4-fluoro-phenyl]-pyridin-3-yl)-propionic acid]
  pIC50: < 6.00

## O=C(O)Cc1cncc(-c2ccc(C(F)(F)F)cc2CN(C(=O)C2CC2)C2Cc3ccccc3C2)c1 [Compound 1-24, (5-{2-[(N-Cyclopropanecarbonyl-N-indan-2-yl-amino)-methyl]-4-trifluoromethyl-phenyl}-pyridin-3-yl)-acetic acid]
  pIC50: > 6.52

## O=C(O)Cc1cncc(-c2ccc(C(F)(F)F)cc2CN(CCc2ccccc2)C(=O)C2CC2)c1 [Compound 1-26, (5-{2-[(N-Cyclopropanecarbonyl-N-phenethyl-amino)-methyl]-4-trifluoromethyl-phenyl}-pyridin-3-yl)-acetic acid]
  pIC50: > 6.52

## CC(=O)N(CCc1ccccc1)Cc1cc(C(F)(F)F)ccc1-c1cncc(CC(=O)O)c1 [Compound 1-27, (5-{2-[(N-Acetyl-N-phenethyl-amino)-methyl]-4-trifluoromethyl-phenyl}-pyridin-3-yl)-acetic acid]
  pIC50: > 6.52

## CCN(Cc1cc(C(F)(F)F)ccc1-c1cc(CC(=O)O)ccn1)C(=O)NCc1ccccc1 [Compound 1-34, {2-[2-(3-Benzyl-1-ethyl-ureidomethyl)-4-trifluoromethyl-phenyl]-pyridin-4-yl}-acetic acid]
  pIC50: < 6.00

## CCN(Cc1cc(C(F)(F)F)ccc1-c1cc(CC(=O)O)ccn1)C(=O)C1CC1 [Compound 1-35, (2-{2-[(N-Cyclopropanecarbonyl-N-ethyl-amino)-methyl]-4-trifluoromethyl-phenyl}-pyridin-4-yl)-acetic acid]
  pIC50: < 6.00

## CCN(Cc1cc(C(F)(F)F)ccc1-c1cc(CC(=O)O)ccn1)C(=O)C1CCC1 [Compound 1-36, (2-{2-[(N-Cyclobutanecarbonyl-N-ethyl-amino)-methyl]-4-trifluoromethyl-phenyl}-pyridin-4-yl)-acetic acid]
  pIC50: < 6.00

## CCN(Cc1cc(C(F)(F)F)ccc1-c1cc(CC(=O)O)ccn1)C(=O)c1ccccc1 [Compound 1-37, (2-{2-[(N-Benzoyl-N-ethyl-amino)-methyl]-4-trifluoromethyl-phenyl}-pyridin-4-yl)-acetic acid]
  pIC50: < 6.00

## CCN(Cc1cc(C(F)(F)F)ccc1-c1cccc(CC(=O)O)n1)C(=O)OC(C)(C)C [Compound 1-38, (6-{2-[(N-tert-Butoxycarbonyl-N-ethyl-amino)-methyl]-4-trifluoromethyl-phenyl}-pyridin-2-yl)-acetic acid]
  pIC50: < 6.00

## CCN(Cc1cc(C(F)(F)F)ccc1-c1cccc(CC(=O)O)n1)C(=O)NCc1ccccc1 [Compound 1-39, {6-[2-(3-Benzyl-1-ethyl-ureidomethyl)-4-trifluoromethyl-phenyl]-pyridin-2-yl}-acetic acid]
  pIC50: < 6.00

## CCN(Cc1cc(C(F)(F)F)ccc1-c1cccc(CC(=O)O)n1)C(=O)C1CC1 [Compound 1-40, (6-{2-[(N-Cyclopropanecarbonyl-N-ethyl-amino)-methyl]-4-trifluoromethyl-phenyl}-pyridin-2-yl)-acetic acid]
  pIC50: < 6.00

## CCN(Cc1cc(C(F)(F)F)ccc1-c1cc(C(F)(F)F)cc(CC(=O)O)n1)C(=O)C1CCC1 [Compound 1-41, (6-{2-[(N-Cyclobutanecarbonyl-N-ethyl-amino)-methyl]-4-trifluoromethyl-phenyl}-4-trifluoromethyl-pyridin-2-yl)-acetic acid]
  pIC50: > 6.52

## CCN(Cc1cc(C(F)(F)F)ccc1-c1cc(C(F)(F)F)cc(CC(=O)O)n1)C(=O)NCc1ccccc1 [Compound 1-42, {6-[2-(3-Benzyl-1-ethyl-ureidomethyl)-4-trifluoromethyl-phenyl]-4-trifluoromethyl-pyridin-2-yl}-acetic acid]
  pIC50: > 6.52

## CCN(Cc1cc(-n2cccn2)ccc1-c1cc(CC(=O)O)cnc1OC)C(=O)C1CC1 [Compound 1-46, (5-{2-[(N-Cyclopropanecarbonyl-N-ethyl-amino)-methyl]-4-pyrazol-1-yl-phenyl}-6-methoxy-pyridin-3-yl)-acetic acid]
  pIC50: > 6.52

## O=C(O)Cc1cncc(-c2ccc(C(F)(F)F)cc2CN(Cc2ccccn2)C(=O)C2CC2)c1 [Compound 1-52, (5-{2-[(N-Cyclopropanecarbonyl-N-pyridin-2-ylmethyl-amino)-methyl]-4-trifluoromethyl-phenyl}-pyridin-3-yl)-acetic acid]
  pIC50: > 6.52

## CC(=O)N(Cc1ccccn1)Cc1cc(C(F)(F)F)ccc1-c1cncc(CC(=O)O)c1 [Compound 1-53, (5-{2-[(N-Acetyl-N-pyridin-2-ylmethyl-amino)-methyl]-4-trifluoromethyl-phenyl}-pyridin-3-yl)-acetic acid]
  pIC50: > 6.52

## Cc1cnc(CN(Cc2cc(C(F)(F)F)ccc2-c2cncc(CC(=O)O)c2)C(=O)C2CC2)cn1 [Compound 1-58, [5-(2-{[N-Cyclopropanecarbonyl-N-(5-methyl-pyrazin-2-ylmethyl)-amino]-methyl}-4-trifluoromethyl-phenyl)-pyridin-3-yl]-acetic acid]
  pIC50: > 6.52

## O=C(O)Cc1cncc(-c2ccc(C(F)(F)F)cc2CN(Cc2ccc(C(F)(F)F)nc2)C(=O)C2CC2)c1 [Compound 1-59, [5-(2-{[N-Cyclopropanecarbonyl-N-(6-trifluoromethyl-pyridin-3-ylmethyl)-amino]-methyl}-4-trifluoromethyl-phenyl)-pyridin-3-yl]-acetic acid]
  pIC50: > 6.52

## COCC(=O)N(Cc1cnc(C)cn1)Cc1cc(C(F)(F)F)ccc1-c1cncc(CC(=O)O)c1 [Compound 1-60, [5-(2-{[N-(2-Methoxy-acetyl)-N-(5-methyl-pyrazin-2-ylmethyl)-amino]-methyl}-4-trifluoromethyl-phenyl)-pyridin-3-yl]-acetic acid]
  pIC50: 6.00 to 6.52

## CC(=O)N(Cc1cnc(C)cn1)Cc1cc(C(F)(F)F)ccc1-c1cncc(CC(=O)O)c1 [Compound 1-61, [5-(2-{[N-Acetyl-N-(5-methyl-pyrazin-2-ylmethyl)-amino]-methyl}-4-trifluoromethyl-phenyl)-pyridin-3-yl]-acetic acid]
  pIC50: > 6.52

## CC(=O)N(Cc1ccc(C(F)(F)F)nc1)Cc1cc(C(F)(F)F)ccc1-c1cncc(CC(=O)O)c1 [Compound 1-62, [5-(2-{[N-Acetyl-N-(6-trifluoromethyl-pyridin-3-ylmethyl)-amino]-methyl}-4-trifluoromethyl-phenyl)-pyridin-3-yl]-acetic acid]
  pIC50: > 6.52

## O=C(O)Cc1cncc(-c2ccc(C(F)(F)F)cc2CN(CCc2ccccn2)C(=O)C2CC2)c1 [Compound 1-64, [5-(2-{[N-Cyclopropanecarbonyl-N-(2-pyridin-2-yl-ethyl)-amino]-methyl}-4-trifluoromethyl-phenyl)-pyridin-3-yl]-acetic acid]
  pIC50: < 6.00

## O=C(O)Cc1cncc(-c2ccc(C(F)(F)F)cc2CN(CCc2cccnc2)C(=O)C2CC2)c1 [Compound 1-65, [5-(2-{[N-Cyclopropanecarbonyl-N-(2-pyridin-3-yl-ethyl)-amino]-methyl}-4-trifluoromethyl-phenyl)-pyridin-3-yl]-acetic acid]
  pIC50: 6.00 to 6.52
